Measurements from patent US20260306421A1, “SYSTEMS AND METHODS FOR TRANSDERMAN PATCH DELIVERY” (VITAMAX PATCH WHOLESALER LLC, priority 2022, published 2026).

What was measured:
[1] = Solubility of iron chloride hexahydrate and iron complexes (visual / assayed); type: physicochemical; conditions: visual (*)
Procedure: Due to the high number of test samples (6 complexes plus the starting material, iron chloride hexahydrate) a visual solubility screen was used to screen the solubility in a range of solvents. […] Quantitative determination was performed by either incubating the complex in excess in the solvent using a shaking 37° C. water bath for 48 h or sonicating it for 2 hours at 40° C. or leaving overnight on a 50° C. hot plate. Once incubation period was completed, the exact solubility in a particular solvent was assayed (using the iron assay) after centrifugation (i.e. assay iron content in the supernatant using the Ferrozine® assay).

[2] = Franz cell porcine skin permeation and deposition of iron from solutions; type: in vitro ADME; conditions: PG solution, 24 h
Procedure: The permeation of the iron complexes from the formulations into and across porcine skin mounted on Franz cells with a receiver fluid was tested (FIG. 4). This was based on the principles of the FDA, SUPAC-SS guidelines. The developed colorimetric assay method was used for iron quantification.
(§1) On the day of the experiment, the skin was defrosted. For the full thickness studies, the subcutaneous fat removed (2.5 mm thick) and for the dermatomes skin studies the tissued was dermatomed to a 1 mm thickness. The tissue was cut into the appropriate size sections (2.19±0.21 cm^2) and mounted between donor and receiver compartments of Franz diffusion cells with the SC facing the donor compartment. Each cell was sealed using parafilm and 12 mm magnetic stir bars were placed into the receiver compartment. The receiver compartment was filled with the desired receiver solution and the Franz cells were placed in a stirring water bath at 37° C. Cells were allowed to equilibrate for 30 min after which the receiver fluid using was mixed using a syringe and the “zero hour” sample was withdrawn from the arm and compensate with the same volume of fresh pre-warmed solution. Following zero-hour sampling, the donor solution was placed in the donor compartment and covered with parafilm. Samples were withdrawn and compensated with fresh receiver solution at set time intervals for a 24 h duration. The iron in each sample was quantified using the method specified in Section 2.2.2.1. […] There was no matrix interference noted in the assay. […] For iron maltol a 80:20 PG:water receiver was used along with a complementary calibration for iron assay (iron chloride in PG:water). The donor solution for the iron maltol made at pH 1.6 was 200 μL of 100 mg/mL complex in Transcutul®, for iron maltol made at pH 4 the donor solution was 200 μL of 23 mg/mL complex in PG and for iron maltol made at pH 4 the donor solution was 150 μL of 16 mg/mL complex in 7.5:1.5:1:1 water:PG:dimethicone:ethanol.
Once the permeation studies were completed the donor solutions were collected into bottles containing the extraction solution. This was followed by skin surface cleaning using four cotton buds, the first two were wetted by the extraction fluid and the second two were used dry. Then two tape striping procedures were performed using 2 tapes to remove any iron on the skin surface with the tape being added to the donor solution and cotton buds in the donor recover vial. For the full skin thickness skin, the Stratum corneum, the dermal and the epidermal layers were isolated in the same way as the recovery method (Section 2.3.2.1). Extraction fluid (50:50 PBS:ethanol) was then added to the tissues, 4 mL to the Stratum corneum, and 2 mL for each of the epidermis and dermis. For the dermatomed skin the whole skin section was chopped up and placed in a 2 mL extraction fluid (ethanol).
The Stratum corneum samples were placed on vibrating plate for a minimum of 2 h to extract the iron and then vortexed prior assay. The epidermis, dermis or dermatomed samples however were incubated with the extraction fluid for 1 h after which were transferred to Eppendorf tubes, one stainless steel 5 mm bead was added and the samples were loaded into the TissuLyser II (Qiagen, Germany) for 30-15 min at 30 Hz. The samples were then centrifuged (5 min at 13,000 rpm) and supernatant assayed.

[3] = Iron complex adhesive compatibility and loading screen; type: physicochemical
Procedure: Pre-formulation studies were performed to determine the compatibility of the iron complexes with a range of transdermal patch adhesives (Table 15).
The compatibility of the complexes with the patch adhesives was assessed by mixing and visually checking the clarity of the mixture.
In the adhesives that were computable with the iron complexes the maximum drug loading of the complexes in the adhesive following solvent evaporation was determined. This was achieved by mixing the drug, adhesive and co-solvents until a clear solution was obtained at different drug:adhesive ratios and placing few drops of the mixture onto the patch backing sheet, leaving it to dry for 3-4 h, and examining the formed film on the surface of the backings for evidence of drug crystals.
Following complete drying of the solvents, the adhesive layer was covered by a release liner, compressed, and then cut using 34 mm circular manual die cutter (FIG. 23).

[4] = Visual skin damage / necrosis after iron permeation study; conditions: after 24 h permeation study, porcine skin
Source text: as §1

[5] = Solubility of zinc chloride and zinc complexes (visual / HPLC); type: physicochemical
Procedure: Accurate measurement of the solubility was then repeated for some of the solvent systems by HPLC. In the HPLC solubility studies, an excess of the test agents was loaded into 2 mL of each test solvent. The solutions were left stirring overnight at 32° C. […] The drug suspensions were then centrifuged, the supernatant diluted, and each sample concentration was measured using HPLC.

[6] = Franz cell porcine skin permeation and deposition of zinc from solutions; type: in vitro ADME; parameters: elemental zinc skin deposition: unit not given here
Procedure: Porcine skin permeation studies were performed to compare the permeation of zinc chloride and the zinc ethyl maltol complex. The permeation of zinc chloride vs zinc ethyl maltol from PG saturated solutions (zinc chloride and zinc ethyl maltol solutions in PG was 2.45 and 2.10 mg/mL, respectively) and permeation of zinc chloride from PG statured solution vs zinc ethyl maltol from PEG400 saturated solutions were investigated (zinc ethyl maltol in PEG400 100 mg/mL). In addition, the permeation of the zinc ethyl complex from PEG400 saturated solution and PEG400:PEG1000 (8:2% w/w) was compared. For the PEG mixture, the zinc ethyl maltol donor was prepared by dissolving 60 mg of the complex in 3 mL of methanol and 1 mL of 80% w/w PEG400:20% w/w PEG 1000 then added. The solution was left overnight to allow the evaporation of methanol.
Permeation studies were conducted using previously validated Franz cell method based on the principles of the FDA, SUPAC-SS guidelines [FDA (CDER), 1997, Guidance for industry—SUPAC-SS Non-sterile Semisolid Dosage Form, Scale-up and post-approval changes: chemistry, manufacturing, and controls; in vitro release testing and in vivo bioequivalence documentation](FIG. 4). On the day of the experiment, the porcine skin was defrosted and either prepared as full-thickness sheets but removing the fat or dermatome to a 1 mm thickness (Nouvag, AG). The tissue was cut into 34 mm circles to allow an exposure area of 2.19±0.21 cm^2 and positioned between donor and receiver compartments of Franz diffusion cells. Each piece of skin was sealed between the two compartments using parafilm (Bemis Company, Neenah, WI). A 12 mm magnetic stir bar was placed into the receiver compartment of each Franz cell. The receiver compartment was loaded with 50 mM phosphate-buffered saline (pH 7.4). The cell sealing was verified by Franz cell inversion (6 times) and monitoring solvent back diffusion. The temperature of the Franz diffusion was set at 37° C. in a water bath to reach a skin temperature of 32° C. After 1 h equilibration at 37° C. in the water bath, 1 mL of receiver fluid was withdrawn (time point=0 min), and a fresh receiver solution was replaced into the cell to keep the volume consistent. Each formulation (1 mL) was applied in the donor compartment that was then covered with parafilm to avoid evaporation. After 24 h, the receiver fluid was collected and analysed by HPLC.
At the end of the permeation studies, the Franz cells were dismantled. The donor solutions were collected from each cell and transferred into 5-mL glass bottles containing 2 mL of PDCA as extraction fluid. This step was followed by wiping the skin surface and the donor compartment with two wet (wetted with extraction fluid) and then two dry cotton buds. The skin's permeation area was then cut into small pieces by scalpels and placed into a 5 mL glass bottle containing 4 mL of extraction fluid. All skin samples were kept at the bench with extraction fluid for 1 hour. This step was followed by separating each vial's content (cut skin and extraction fluid) into 2 mL Eppendorf tubes that were then loaded in TissuLyser machine for 20 minutes. Samples were then centrifuged for 15 minutes at 13,000 rpm. The content of each Eppendorf tube was filtered using 0.45 µm syringe filters, collected, and analysed by HPLC.

[7] = Zinc ethyl maltol adhesive suitability (solubility/compatibility) screening; type: physicochemical
Procedure: Pre-formulation studies were performed to determine the compatibility of zinc ethyl maltol with a variety of adhesives that could be used to manufacture a transdermal patch (Table 2). The compatibility of the zinc complexes with the patch excipients was evaluated by examining the clarity of the mixture upon mixing. […] Following patch optimisation, the optimised drug-adhesive solutions were cast in 10×10 cm^2 trays made of the patch backing (3M™ Scotchpak™ Polyester Backing Film Laminate 9730, 3M, Germany). An adequate volume of the adhesive was applied to achieve a target coating level of 8 mg/cm^2 (equivalent to 80 g/m^2). Following complete drying of the solvents, the adhesive layer was covered by an M3 Release liner (SCOTCHPAK 9755), compressed, and then cut using a 34 mm circular manual die cutter (SCP Super Cutting Press).

[8] = Zinc ethyl maltol reservoir co-solvent solubility screening; type: physicochemical; conditions: for Solubility in PEG400:PEG1000: 3 mL methanol
Procedure: Pre-formulation studies were completed to optimise the solubility of zinc ethyl maltol using a variety of co-solvents that could be applied to the skin, such as Transcutol and ethanol. Polymers such as PEG 1000, Natrsol M250, and PVP were used to aid the solubilisation process. The compatibility of the complex with the solvents was evaluated by examining the clarity of the mixture. Following the optimisation of the complex solubility, the reservoir patch was developed using the backing layer, drug in solution, and liner release layer. The backing used was 3M™ Scotchpak™ Polyester Backing Film Laminate 9730. Different liner release membranes were investigated including, regenerated cellulose (12-14 k molecular weight cut-off Medical International UK), nylon (0.20 μm, Whatman, UK), and CoTran 9728 (3M, Germany). A 200 μL aliquot of zinc ethyl maltol complex in solution was applied on the liner release membrane, then covered by the backing layer and all layers thermally sealed (HeatPress machine HP230B).
The solution left to evaporate overnight to form a supersaturated solution (Table 4). This solution was then loaded into the reservoir patch.

[9] = Franz cell porcine skin permeation and deposition of zinc from solutions; type: in vitro ADME; conditions: solution in PEG (6 mg/mL)

SMILES: CCc1occc(=O)c1[O-].CCc1occc(=O)c1[O-].CCc1occc(=O)c1[O-].[Fe+3] [Iron ethyl maltol, iron ethyl maltol]
- Solubility of complex (visual) ([1]; Chloroform): ≥20 mg/mL Iron ethyl maltol*
- Solubility of complex (visual) ([1]; Ethyl acetate): <8 mg/mL Iron ethyl maltol*
- Solubility of complex (visual) ([1]; Glycerol): <8 mg/mL Iron ethyl maltol*
- Solubility of complex (visual) ([1]; Hexane): <8 mg/mL Iron ethyl maltol*
- Solubility of complex (visual) ([1]; Liquid Paraffin): <8 mg/mL Iron ethyl maltol*
- Solubility of complex (visual) ([1]; Methanol): ≥20 mg/mL Iron ethyl maltol*
- Solubility of complex (visual) ([1]; Miglyol): <8 mg/mL Iron ethyl maltol*
- Solubility of complex (visual) ([1]; Oleic acid): <8 mg/mL Iron ethyl maltol*
- Solubility of complex (visual) ([1]; Transcutul): <8 mg/mL Iron ethyl maltol*
- Solubility of complex (visual) ([1]; Triaceten): <8 mg/mL Iron ethyl maltol*
- total delivered dose [2]: 12 μg/cm^2
- compatibility with adhesives [3]: only compatible with DURO-TAK 9301
- (maximum) complex loading achieved in adhesive ([3]; methanol stock solution 10 mg/mL): 4%
- complex loading achieved in adhesive patch ([3]; methanol stock solution 18 mg/mL): 8.5%
- skin damage / necrosis [4]: did not cause any visible skin damage

SMILES: CCc1occc(=O)c1[O][Zn][O]c1c(CC)occc1=O [Zinc Ethyl Maltol, zinc ethyl maltol]
- Elemental zinc solubility evaluated by HPLC ([5]; solvent PEG400): 6600 µg/mL
- Elemental zinc solubility evaluated by HPLC ([5]; solvent PG): 2100 µg/mL
- Elemental zinc solubility evaluated by HPLC ([5]; solvent Transcutol): 6000 µg/mL
- transdermal permeation of elemental zinc ([6]; 1 mL PG solution, 24 h): 4.85 µg/cm^2
- permeation of elemental zinc ([6]; solution in PG ([…])): 41 μg/cm^2
- daily dose delivered by the solution ([6]; solution, extrapolated): approximately 2 mg
- elemental zinc passed through the skin ([6]; supersaturated solution (conclusions)): 237.93 μg/cm^2
- elemental zinc permeated through the skin ([6]; supersaturated solution in PEG400:PEG1000 (8% w/w:2% w/w), 24 h): 238 µg/cm^2
- elemental zinc skin deposition ([6]; vehicle PEG400, 24 h): 44.84
- transdermal permeation of elemental zinc ([6]; vehicle PEG400, 24 h): 174 µg/cm^2
- transdermal permeation compared to zinc chloride ([6]; zinc ethyl maltol in PEG400 vs zinc chloride in PG): 4.8 fold
- Solubility in DURO-TAK 9301 ([7]; drug loading 5%, no Transcutol): Not Soluble
- Solubility in DURO-TAK 9301 ([7]; drug loading 7.4%, Transcutol 12.5 mg): Soluble
- Solubility in DURO-TAK 9301 ([7]; drug loading 7.5%, no Transcutol): Not Soluble
- Solubility in DURO-TAK 9301 ([7]; drug loading 10%, no Transcutol): Not Soluble
- Solubility in DURO-TAK 9301 ([7]; drug loading […], no Transcutol): Not Soluble
- Solubility in PEG400:PEG1000 ([8]; 60 mg, 1 mL PEG400:PEG1000 (2% w/w:8% w/w)): Not soluble
- Solubility in PEG400:PEG1000 ([8]; 60 mg, 1 mL PEG400:PEG1000 (6% w/w:4% w/w)): Not soluble
- Solubility in PEG400:PEG1000 ([8]; 60 mg, 1 mL PEG400:PEG1000 (8% w/w:2% w/w)): Soluble
- Solubility in PEG400:PEG1000 ([8]; 80 mg, 1 mL PEG400:PEG1000 (6% w/w:4% w/w)): Not soluble
- Solubility in PEG400:PEG1000 ([8]; 80 mg, 1 mL PEG400:PEG1000 (8% w/w:2% w/w)): Not soluble
- Solubility in PEG400:PEG1000 ([8]; 100 mg, 1 mL PEG400:PEG1000 (6% w/w:4% w/w)): Not soluble
- Solubility in PEG400:PEG1000 ([8]; 100 mg, 1 mL PEG400:PEG1000 (8% w/w:2% w/w)): Not soluble
- Solubility in PEG400:PEG1000 ([8]; 120 mg, 1 mL PEG400:PEG1000 (6% w/w:4% w/w)): Not soluble
- Solubility in PEG400:PEG1000 ([8]; 120 mg, 1 mL PEG400:PEG1000 (8% w/w:2% w/w)): Not soluble
- maximum solubility of zinc ethyl maltol complex ([8]; PEG400): 30000 µg/mL
- elemental zinc achieved in supersaturated solution ([8]; supersaturated solution based on PEG400/PG6000): 28.8 mg/mL
- permeation of elemental zinc [9]: 173.6 μg/cm^2
